From patent US20210196702A1, “TREATMENT OF HYPERKINETIC MOVEMENT DISORDERS” (Neurocrine Biosciences, Inc., priority 2014, published 2021)
Like-named read-outs stand apart in the source and are kept apart here.

Legend:
[1] = test system: patients exposed to drug; conditions: patients exposed to metoclopramide (Rao et al 2010); cited from earlier work
[2] = Phase 2 clinical study: week 6 plasma concentration (Cmax ss) of [+]α-HTBZ; assay type: in vivo; conditions: human, NBI-98854 25, 50 or 75 mg, TD patients
Excerpt: (§1) Plasma concentrations of (+)α-HTBZ, (+)β-HTBZ, and compounds as disclosed herein may be measured by methods as described in Derangula et al, Biomedical Chromatography 2013 27(6): 792-801, Mehvar et al, […] 1987 15(2): 250-55 and generally by tandem mass spectroscopy.
(§2) Observed exposure and Abnormal Involuntary Movement Scale (AIMS) derived from video ratings from a Phase 2 clinical study of (S)-2-amino-3-methyl-butyric acid (2R,3R,11bR)-3-isobutyl-9,10-dimethoxy-1,3,4,6,7,11b-hexahydro-2H-pyrido[2,1-a]isoquinolin-2-yl ester were employed for development of the exposure-response relationship. A total of […] were randomized to placebo (N=41) and (S)-2-amino-3-methyl-butyric acid (2R,3R,11bR)-3-isobutyl-9,10-dimethoxy-1,3,4,6,7,11b-hexahydro-2H-pyrido[2,1-a]isoquinolin-2-yl ester (either 25 mg, 50 mg or 75 mg, N=45). Thirty-eight patients receiving (S)-2-amino-3-methyl-butyric acid (2R,3R,11bR)-3-isobutyl-9,10-dimethoxy-1,3,4,6,7,11b-hexahydro-2H-pyrido[2,1-a]isoquinolin-2-yl ester had PK data available for the metabolite [+]α-dihydrotetrabenazine. […] AIMS derived from video rating was available at baseline and week 6 in each patient. Percent change from baseline at week 6 served as the response metric. [+]α-Dihydrotetrabenazine concentration at week 6 sampled at about the Tmax was available in each patient and this Cmax steady state (ss) was used as the exposure measure.
(§3) The patients who had quantifiable concentrations of [+]α-dihydrotetrabenazine were divided into quartiles based upon the week 6 Cmax ss. The mean Cmax ss and mean AIMS reduction from baseline were calculated for each quartile.

[3] = test system: TD subjects; assay: Phase 2 clinical study of NBI-98854: exposure-AIMS (video-rated) analysis; assay type: in vivo, human; conditions: for Mean AIMS reduction - % (week 6 vs baseline): regardless of NBI-98854 dose
Excerpt: Methods for determining the effectiveness of a therapeutic for treating a hyperkinetic disorder are routinely practiced in the art by a person skilled in the medical and clinical arts. By way of example, a subject with a hyperkinetic disorder may be diagnosed, monitored, and evaluated by the Abnormal Involuntary Movement Scale (AIMS). The AIMS is a structured neurological examination that was developed in 1976 and has been used extensively in movement disorder assessments. It consists of seven distinct ratings of regional involuntary body movements that are scored on a zero to four scale with zero being rated as none and four being rated as severe.
as §2, §3

[4] = NBI-98854 multiple-dose cohort: plasma (+)α-HTBZ on day 8; assay type: in vivo, human; conditions: for half-life: read-out: apparent ti (half-life) of plasma concentration decline (converted)
Protocol: as §1
NBI-98854 was administered orally once daily at a dose of 50 mg or 100 mg for 8 days to patients in a multiple-dose cohort (n=13 for 50 mg dosage group; n=4 for 100 mg dosage group). Individual subject plasma concentration data for (+)α-HTBZ was collected at scheduled times post-dose (0 hr, 2 hr, 4 hr, 6 hr, 8 hr, 12 hr, 16 hr, 24 hr, 48 hr, 96 hr, and 120 hr) on day 8 and presented as mean plasma concentration data (linear scale) (see, FIG. 1). On Day 8, median time to Tmax for (+)α-HTBZ was approximately 4.0 hours for both doses.

[5] = cited from earlier work
[6] = test system: TD subjects; assay: Tolerability of repeated doses in TD subjects; assay type: in vivo, human; conditions: repeated doses from 12.5 mg to 100 mg per day
Protocol: Efficacy is related to the concentrations of the active metabolite [+]α-dihydrotetrabenazine. […] Exposures above 60 ng/mL in plasma afford little incremental benefit but increase the risk of adverse events reflecting extension of VMAT2 pharmacology. Exposures below 15 ng/mL are suboptimal across the general TD population.

[7] = active metabolite after NBI-98854, TD population

CCN(CC)CCNC(=O)c1cc(Cl)c(N)cc1OC [metoclopramide]
Occurrence of drug-induced TD in patients exposed to drug [1]: < 1%

COc1cc2c(cc1OC)[C@H]1C[C@@H](O)[C@H](CC(C)C)CN1CC2 [(+)α-HTBZ, (2R, 3R, 11bR)-3-isobutyl-9,10-dimethoxy-1,3,4,6,7,11b-hexahydro-2H-pyrido[2,1-a]isoquinolin-2-ol]
Cmax ([2]; 1st quartile by week 6 Cmax ss): ~15 ng/mL
Cmax ([2]; 2nd quartile by week 6 Cmax ss): ~29 ng/mL
Cmax ([2]; 3rd quartile by week 6 Cmax ss): 42 ng/mL
Cmax ([2]; 4th quartile by week 6 Cmax ss): 93 ng/mL
Appropriate target concentration in plasma (exposure-response analysis) [3, 7]: 30 ng/mL
Plasma exposures affording little incremental benefit but increased risk of adverse events [3, 7]: above 60 ng/mL
Plasma exposures that are suboptimal across the general TD population [3, 7]: below 15 ng/mL
Plasma concentration maintained above threshold ([4]; NBI-98854 50 mg once daily, over a period of about 8 to about 24 hours): > 15 ng/mL
half-life ([4]; human, plasma, po, NBI-98854 50 mg orally once daily): ~21 h
half-life ([4]; human, plasma, po, NBI-98854 100 mg orally once daily): ~19 h
Tmax ([4]; human, plasma, po, NBI-98854 orally once daily, both doses (50 mg and 100 mg), read-out: median time to Tmax): ~4 h

COc1cc2c(cc1OC)C1CC(O)C(CC(C)C)CN1CC2 (centres unmarked) [HTBZ, 3-isobutyl-9,10-dimethoxy-1,3,4,6,7,11b-hexahydro-2H-pyrido[2,1-a]isoquinolin-2-ol]
half-life ([5]; HTBZ formed from tetrabenazine in humans): short

COc1cc2c(cc1OC)C1CC(=O)C(CC(C)C)CN1CC2 (centres unmarked) [tetrabenazine, 3-isobutyl-9,10-dimethoxy-1,3,4,6,7,11b-hexahydro-2H-pyrido[2,1-a]isoquinolin-2-one]
Systemic exposure to parent drug ([5]; in humans, rapidly metabolized to HTBZ): virtually negligible

COc1cc2c(cc1OC)[C@H]1C[C@@H](OC(=O)[C@@H](N)C(C)C)[C@H](CC(C)C)CN1CC2 [NBI-98854, (S)-2-amino-3-methyl-butyric acid (2R,3R,11bR)-3-isobutyl-9,10-dimethoxy-1,3,4,6,7,11b-hexahydro-2H-pyrido[2,1-a]isoquinolin-2-yl ester]
Mean AIMS reduction - % (week 6 vs baseline) ([3]; 3rd quartile of [+]α-HTBZ Cmax ss): 65%
Mean AIMS reduction - % (week 6 vs baseline) ([3]; 4th quartile of [+]α-HTBZ Cmax ss): 52%
Tolerability [6]: generally well tolerated
